Results on six compounds are retold here after paper PMC9825896, “Discovery of an L‐like Configuration for 3’‐Fluoro‐5’‐norcarbonucleoside Phosphonates as Potent Anti‐HIV Agents” (Chemmedchem, 2022).

One data set deals with HIV‐1‐56252‐1. The data set can be described thus: Anti-HIV-1 activity in T CD4+ H9 cells, resistant strain 56252-1. The data set is classed as cell-based. The note with it: Human immunodeficiency virus 1; strain 56252‐1, T CD4+ H9 cells, mean from three experiments. The protocol: (§1) Peripheral blood mononuclear cells (PBMC) from healthy donors were isolated and stimulated for 3 days with […] of phytohemagglutinin‐P (PHA‐P, Sigma) and 5 IU/mL of recombinant human interleukin‐2 (rHuIL‐2, Roche). PBMC were growth under CO2 in a humid atmosphere at 37 °C in RPMI‐1640 GlutaMAX medium supplemented with antibiotics (penicillin, streptomycin, neomycin), 10 % fetal calf serum (FCS, previously inactivated by heat) and 10 UI/mL of rHuIL‐2. The HIV‐1 LAI strain was previously described.[19] Resistant viral strains are from the NIH AIDS Research & Reference Reagent Program (HIV‐1–52534‐2, HIV‐1–56252‐1, HIV‐1–71361‐1, and HIV‐1–7324‐1) carry mutations in RT.[16]
(§2) PHA‐P activated PBMCs (1.5×10^5 cells) were pre‐treated for 30 min by increasing concentrations of the various compounds to be tested and then infected with […] infectious tissue culture doses 50 % (TCID50) of the HIV‐1‐LAI. Supernatants were collected at day 7 post infection and stored at ‐ 20 °C. Viral replication was measured by quantifying reverse transcriptase activity in cell culture supernatants by the use of Lenti kit RT (Cavidi). Cytotoxicity of the compounds was evaluated in uninfected PHA‐P PBMC by MTT assay (Promega) on day 7. Experiments were performed in triplicate and repeated with another blood donors. Data analyses were performed using SoftMax® Pro 4.6 software (Molecular Devices). Percent of inhibition of RT activity or cell viability were plotted versus compound concentration and fitted with quadratic curves to determine 50 % effective concentration (EC50) and 50 % cytotoxic concentration (CC50). The viral resistant strains were amplified and the viral stocks titrated using cells of the H9 line.[20] More specifically, with regard to the antiviral test, the cells were distributed in the wells of 96‐well microplates at the rate of 50,000 cells per well. They were then pretreated for 30 minutes with increasing concentrations of the various compounds to be tested and then infected with 125 TCID50 of the various resistant strains. Seven and 14 days after infection, culture supernatants were collected and frozen at −20 ° C until measurement of viral replication via quantification of the enzymatic activity of the TI. The EC50 was calculated as previously described. A possible cytotoxicity of the molecules towards the cells of the H9 line was assessed by microscopic observation throughout the cell cultures.

The next data set deals with HIV‐1 LAI. The experiment in a line: Anti-HIV-1 activity in T CD4+ H9 cells, LAI reference strain. The data set is classed as cell-based. The note with it: Human immunodeficiency virus 1, mean from three experiments. The protocol:
as §1, §2

The subject of data set [1] is HIV‐1 LAI strain. The note with it: ref 4b, cited from earlier work; for EC50: read-out: EC50, effective concentration of drug required to reduce viral replication by 50 %, HIV-1 LAI in human PBMC; for SI = CC50/EC50: HIV-1 LAI in PBMC.
The next data set has as its system HIV‐1‐7324‐1. The data set can be described thus: Anti-HIV-1 activity in T CD4+ H9 cells, resistant strain 7324-1. The data set is classed as cell-based. The note with it: Human immunodeficiency virus 1; strain 7324‐1, T CD4+ H9 cells, mean from three experiments. The protocol:
as §1, §2

Data set [2] relates to human peripheral blood mononuclear cells (PBMC). More on the design: method as in earlier work. The note with it: ref 4b, cited from earlier work; for CC50: read-out: CC50, cytotoxic concentration of drug required to reduce cell growth by 50 %.
Another data set has as its system HIV‐1‐52534‐2. The experiment in a line: Anti-HIV-1 activity in T CD4+ H9 cells, resistant strain 52534-2. Format: cell-based. The note with it: strain 52534‐2, T CD4+ H9 cells; for EC50: Human immunodeficiency virus 1, mean from three experiments. The protocol:
as §1, §2

Another data set relates to HIV‐1‐71361‐1. The experiment in a line: Anti-HIV-1 activity in T CD4+ H9 cells, resistant strain 71361-1. The data set is classed as cell-based. The note with it: Human immunodeficiency virus 1, H9. The protocol: as §1, §2
Data set [3] relates to human peripheral blood mononuclear cells (PBMC). The experiment in a line: Cytotoxicity in uninfected PHA-P PBMC by MTT assay. Format: cell-based. The protocol: as §1, §2
(In general: Tetrazolium dyes change colour on reduction, which living cells bring about.)

A short description of data set [4]: Cytotoxicity in uninfected PHA-P PBMC by MTT assay. Format: cell-based, human. The note with it: human. The method, then:
as §1, §2

Data set [5] deals with HIV‐1 LAI strain. The experiment in a line: Anti-HIV-1 LAI activity in PHA-P activated PBMC (RT activity in supernatants). Format: cell-based. The note with it: for EC50: read-out: EC50, effective concentration of drug required to reduce viral replication by 50 %. The protocol:
as §1, §2

The mark [6] stands for this setting: uninfected PBMC, MTT, day 7, mean from 3 blood donors, read-out: CC50, cytotoxic concentration of drug required to reduce cell growth by 50 %.
Where [7] appears, read: Human immunodeficiency virus 1, 168 h, HIV-1 LAI in human PBMC, day 7 post infection, mean from 3 blood donors.
Setting [8] is: Human immunodeficiency virus 1, PBMC, 168 h.

Read-outs that look alike come from different tables or passages of the source.

`Nc1ncnc2c1ncn2[C@H]1C=C(F)[C@@H](OCP(=O)(O)O)C1` (racemic) [(±)‐1]: the EC50 with HIV‐1‐56252‐1 is 10000 nM; with HIV‐1 LAI, 660 nM; in the data set on HIV‐1 LAI strain [1], 880 nM; in the data set on HIV‐1‐7324‐1, 170 nM; with HIV‐1‐52534‐2, at least 10000 nM; in the data set with HIV‐1‐71361‐1, 3730 nM. Further, in [2], the CC50 is at least 10000 nM. Besides, in data set [2], the “cytotoxicity (in words)” value is recorded as “without additional cytotoxicity”.

On to `Nc1ncnc2c1ncn2[C@H]1C=C(F)[C@@H](OCP(=O)(O)O)C1` [(+)‐1], for which the “cytotoxicity (in words)” value in data set [3] (PBMC) is reported as “No cytotoxicity”. The CC50 at 7 days in [4] (setting [6]) is at least 10000 nM. Moreover, the “SI = CC50/EC50” value with HIV‐1 LAI strain [5] (HIV-1 LAI in PBMC) was at least 2.32. In addition, in the data set on HIV‐1 LAI strain [5] (setting [7]), the EC50 came to 4300 nM.

Consider `CC(C)(C)C(=O)OCOP(=O)(CO[C@H]1C[C@@H](n2cnc3c(N)ncnc32)C=C1F)OCOC(=O)C(C)(C)C` [(+)‐9, bis‐(Pivaloyloxymethyl)‐((1’S,4’R)‐4‐(6‐amino‐9H‐purin‐9‐yl)‐2‐fluorocyclopent‐2‐en‐1‐yl)oxymethyl‐phosphonate], for which the EC50 was 960 nM with HIV‐1‐56252‐1; 1850 nM in the data set with HIV‐1 LAI; 240 nM in the data set with HIV‐1‐7324‐1; at least 10000 nM in the data set on HIV‐1‐52534‐2; 510 nM in the data set on HIV‐1 LAI strain [5] (setting [8]); 680 nM in the data set on HIV‐1‐71361‐1. The same compound yielded a CC50 at 7 days in data set [4] of at least 10000 nM.

With `C[C@H](Cn1cnc2c(N)ncnc21)OCP(=O)(O)O` [(R)‐PMPA, reference compound], the EC50 is 1650 nM with HIV‐1‐56252‐1; 130 nM in the data set with HIV‐1 LAI; 1100 nM in the data set on HIV‐1 LAI strain [1]; 100 nM in the data set with HIV‐1‐7324‐1; 6100 nM in the data set with HIV‐1‐52534‐2; 100 nM in the data set with HIV‐1‐71361‐1. Moreover, the figures for the “SI = CC50/EC50” value in the data set with HIV‐1 LAI strain [1] and in the data set on HIV‐1 LAI strain [1] (listed as Tenofovir) were at least 9.1 and 9.1, respectively. For the same compound, in [2], the CC50 is at least 10000 nM.

As for `Nc1ncnc2c1ncn2[C@@H]1C=C(F)[C@H](OCP(=O)(O)O)C1` [(−)‐1], the EC50 is 690 nM in the data set on HIV‐1‐56252‐1; 330 nM in the data set with HIV‐1 LAI; 420 nM with HIV‐1‐7324‐1; at least 10000 nM in the data set on HIV‐1‐52534‐2; 190 nM in the data set on HIV‐1 LAI strain [5] (setting [7]); 900 nM in the data set with HIV‐1‐71361‐1. Further, in [3] (PBMC), the “cytotoxicity (in words)” value is “No cytotoxicity”. Moreover, the CC50 at 7 days in data set [4] (setting [6]) was at least 10000 nM. Also, in the data set on HIV‐1 LAI strain [5] (HIV-1 LAI in PBMC), the “SI = CC50/EC50” value is reported as at least 52.6.

Regarding `CC(C)(C)C(=O)OCOP(=O)(CO[C@@H]1C[C@H](n2cnc3c(N)ncnc32)C=C1F)OCOC(=O)C(C)(C)C` [(−)‐9, bis‐(Pivaloyloxymethyl)‐((1’R,4’S)‐4‐(6‐amino‐9H‐purin‐9‐yl)‐2‐fluorocyclopent‐2‐en‐1‐yl)oxymethyl‐phosphonate], the EC50 in the data set with HIV‐1‐56252‐1 came out at 90 nM; in the data set on HIV‐1 LAI, 110 nM; with HIV‐1‐7324‐1, 10 nM; with HIV‐1‐52534‐2, 580 nM; with HIV‐1 LAI strain [5] (setting [8]), 63 nM; in the data set on HIV‐1‐71361‐1, 110 nM. For the same compound, in [3], the “cytotoxicity (in words)” value was “some cytotoxicity”. In addition, the CC50 at 7 days in [4] stood at 5200 nM. In addition, the “antiviral activity (in words)” value in the data set on HIV‐1‐52534‐2 is given as “remains significantly active”. Besides, the “anti‐HIV‐1 activity, fold greater than that of the D‐like enantiomer” value in the data set with HIV‐1 LAI strain [5] (HIV-1 LAI in PBMC, EC50 ratio versus D-like bis(POM) prodrug) stood at 8 fold. Besides, in the data set with HIV‐1 LAI strain [5] (HIV-1 LAI in PBMC, EC50 ratio versus Tenofovir), the “anti‐HIV‐1 activity, fold greater than Tenofovir” value is listed as 17 fold.
